# Laboratory results published in patent publication EP0010119A1, “Isoquinoline derivatives, their preparation and pharmaceutical compositions containing these compounds” (THE MASSACHUSETTS GENERAL HOSPITAL, priority 1978, dated 1980).
# Experiments:
# [1] = system: twitch response of the tibialis anterior muscle; assay: Neuromuscular block of the twitch response of the tibialis anterior muscle in anesthetized monkeys; type: in vivo, RHESUS MONKEY
# [2] = system: skeletal muscle relaxation; details: in vivo; cited from earlier work
# [3] = time span from drug injection to full recovery of the twitch response, halothane, nitrous oxide and oxygen anesthesia, 4 animals per compound
SMILES,"Range of dupation of action (minutes from injection to full recovery) [1, 3] [min]",also measured
"COc1ccc(CC2c3cc(OC)c(OC)cc3CC[N+]2(C)CCCOC(=O)C=Cc2ccc(C=CC(=O)OCCC[N+]3(C)CCc4cc(OC)c(OC)cc4C3Cc3ccc(OC)c(OC)c3)cc2)cc1OC (stereo not shown) [GG195, Bis-3-[N-methyl-1-(3,4-dimethoxybenzyl) 6,7-dimethoxy-1,2,3,4-tetrahydroisoquinolinium] propyl p-phenylene-3,3'-diacrylate dichlorid]",15 to 30,–
"COc1cc2c(cc1OC)C(Cc1cc(OC)c(OC)c(OC)c1)[N+](C)(CCCOC(=O)C=Cc1ccc(C=CC(=O)OCCC[N+]3(C)CCc4cc(OC)c(OC)cc4C3Cc3cc(OC)c(OC)c(OC)c3)cc1)CC2 (stereo not drawn) [HH109, Bis-3-[N-methyl-l-(3,4,5-trimethoxybenzyl)] 6,7-dimethoxy-1,2,3,4-tetrahydroisoquinolinium propyl p-phenylene-3,3'-diacrylate dichloride]",20 to 30,–
COc1ccc(CC2c3cc(OC)c(OC)cc3CC[N+]2(C)CCCOC(=O)Cc2ccc(CC(=O)OCCC[N+]3(C)CCc4cc(OC)c(OC)cc4C3Cc3ccc(OC)c(OC)c3)cc2)cc1OC (stereo not shown) [KK100],10 to 20,–
"COc1cc2c(cc1OC)C(Cc1cc(OC)c(OC)c(OC)c1)[N+](C)(CCCOC(=O)Cc1ccc(CC(=O)OCCC[N+]3(C)CCc4cc(OC)c(OC)cc4C3Cc3cc(OC)c(OC)c(OC)c3)cc1)CC2 (stereo not shown) [LL46, Bis-3-(N-methyl-1-(3,4,5-trimethoxybenzyl) 6,7-dimethoxy-1,2,3,4-tetrahydroisoquinolinium) propyl p-phenylene-3,3'-diacetate dichloride]",15 to 25,–
"C[N+](C)(C)CCOC(=O)CCC(=O)OCC[N+](C)(C)C [Succinyl-choline, succinylcholine chloride]",–,"ED95 ([1]; rhesus monkey, in vivo): 1,0 - 2,0 MG/NG cation; Range of dupation of action (minutes from injection to full recovery) ([1]; rhesus monkey, in vivo): 4 to 6 min; duration of action [2]: 5 to 15 min"
C[N+](C)(C)CCCCCCCCCC[N+](C)(C)C [decamethonium],–,duration of action [2]: 20 to 40 min
"COc1cc2c3cc1Oc1cc(ccc1O)C[C@@H]1c4c(cc(OC)c(O)c4Oc4ccc(cc4)C[C@@H]3N(C)CC2)CC[N+]1(C)C.Cl.O.O.O.O.O.[Cl-] [l-Tube-curarine, d-tubocurarine chloride]",30 to 50,"ED95 ([1]; dose range to produce 95 per cent block of the twitch response, muscle stimulated indirectly at 0,15 Hz via the sciatic nerve, halothane, nitrous oxide and oxygen anesthesia, 4 animals per compound): 0,2 - 0,4 MG/NG cation"
